Series [1] deals with human red blood cells (hRBC). Type of series: cell-based. The note with it: red cells of human, 1 h, 0.2 g/L. The gist of the method:
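PBS-washed human erythrocytes (20% v/v) were incubated with compounds at 200 μg/mL for 1 h at 37° C with shaking. Supernatant OD540 was read after 8-fold dilution; hemolysis % = OD540 peptide / OD540 of the 100% lysis control (2.5% Triton X-100 in H2O) ×100, with PBS as 0%.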

Series [2] has as its system Escherichia coli ATCC 25922. The note with it: ATCC 25922. The gist of the method: (§1)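 Broth microdilution; cation-adjusted MHII; inoculum ~5×10^5 CFU/mL from 0.5 McFarland saline suspension; peptide two-fold serial dilutions; polysorbate 80 0.002% final; peptide stock 1 mg/mL in water.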
Series [3] has as its system Escherichia coli MCR-1 Af 45. The following applies: Mueller-Hinton broth II, no visible growth after 18-20 hours at 35° C. The gist of the method:
as §1

The test system of series [4] is Klebsiella pneumoniae SSI3010. The following applies: SSI3010. The procedure, abridged: as §1

Where a SMILES comes first, the peptide text is derived from it. Bridges are numbered along the chain shown (N, C = ends). [ ]: non-standard residue; d: D form. Hyp = O=C(O)[C@@H]1C[C@@H](O)CN1; Pen = CC(C)(S)[C@H](N)C(=O)O; dDab = NCC[C@@H](N)C(=O)O; Dab = NCC[C@H](N)C(=O)O

With `CC[C@H](C)[C@H](NC(=O)[C@@H]1C[C@@H](Oc2ccccc2)CN1C(=O)[C@@H](N)C(C)C)C(=O)N[C@H](C(=O)N[C@@H](Cc1ccc(O)cc1)C(=O)N[C@@H]1C(=O)N[C@@H](CC(N)=O)C(=O)N[C@@H](CCCNC(=N)N)C(=O)N[C@@H](CCN)C(=O)N[C@@H]([C@@H](C)O)C(=O)N[C@H](CCN)C(=O)N[C@@H](CCCCN)C(=O)N[C@H](C(=O)N[C@@H](CCN)C(=O)N[C@@H](CCCNC(=N)N)C(=O)N[C@@H](Cc2ccc(O)cc2)C(=O)O)CSSC1(C)C)[C@@H](C)O` [Example 129, Val-Pro(4,4F2)-Ile-Thr-Tyr-Pen-Asn-Arg-Dab-Thr-^DDab-Lys-Cys-Dab-Arg-Tyr] (HELM PEPTIDE1{V.[O=C([C@@H]1C[C@@H](Oc2ccccc2)CN1[*:1])[*:2]].I.T.Y.[Pen].N.R.[Dab].T.[NCC[C@@H](N[*:1])C(=O)[*:2]].K.C.[Dab].R.Y}$PEPTIDE1,PEPTIDE1,6:R3-13:R3$$$V2.0), the “Hemolysis at 0.2 g/L” value in series [1] is recorded as below 1%. The “Escherichia coli ATCC 25922 MIC” value in series [2] was determined as 0.125 µg/mL. Further, the “Escherichia coli MCR-1 Af 45 MIC” value in series [3] was 0.0625 µg/mL. In addition, the “Klebsiella pneumoniae SSI3010 MIC” value in series [4] is 0.5 µg/mL.

Take `CC[C@H](C)[C@H](NC(=O)[C@@H]1C[C@@H](OC)CN1C(=O)[C@@H](N)C(C)C)C(=O)N[C@H](C(=O)N[C@@H](Cc1ccc(O)cc1)C(=O)N[C@@H]1C(=O)N[C@@H](CC(N)=O)C(=O)N[C@@H](CCCNC(=N)N)C(=O)N[C@@H](CCN)C(=O)N[C@@H]([C@@H](C)O)C(=O)N[C@H](CCN)C(=O)N[C@@H](CCCCN)C(=O)N[C@H](C(=O)N[C@@H](CCN)C(=O)N[C@@H](CCCNC(=N)N)C(=O)N[C@@H](Cc2ccc(O)cc2)C(=O)O)CSSC1(C)C)[C@@H](C)O` [Example 130, Val-Pro((4R)OPh)-Ile-Thr-Tyr-Pen-Asn-Arg-Dab-Thr-^DDab-Lys-Cys-Dab-Arg-Tyr] (H-V[Hyp](Me)ITY[Pen]NR[Dab]T[dDab]KC[Dab]RY-OH; disulfide 6-13): the “Hemolysis at 0.2 g/L” value in series [1] is on record as below 1%. In series [2], the “Escherichia coli ATCC 25922 MIC” value worked out at 0.125 µg/mL. Moreover, in series [3], the “Escherichia coli MCR-1 Af 45 MIC” value stood at 0.125 µg/mL. The “Klebsiella pneumoniae SSI3010 MIC” value in series [4] came out at 0.25 µg/mL.

`CC[C@H](C)[C@H](NC(=O)[C@@H]1C[C@@H](F)CN1C(=O)[C@@H](N)C(C)C)C(=O)N[C@H](C(=O)N[C@@H](Cc1ccc(O)cc1)C(=O)N[C@@H]1C(=O)N[C@@H](CC(N)=O)C(=O)N[C@@H](CCCNC(=N)N)C(=O)N[C@@H](CCN)C(=O)N[C@@H]([C@@H](C)O)C(=O)N[C@H](CCN)C(=O)N[C@@H](CCCCN)C(=O)N[C@H](C(=O)N[C@@H](CCN)C(=O)N[C@@H](CCCNC(=N)N)C(=O)N[C@@H](Cc2ccc(O)cc2)C(=O)O)CSSC1(C)C)[C@@H](C)O` [Example 131, Val-Pro((4R)F)-Ile-Thr-Tyr-Pen-Asn-Arg-Dab-Thr-^DDab-Lys-Cys-Dab-Arg-Tyr] (HELM PEPTIDE1{V.[O=C([C@@H]1C[C@@H](F)CN1[*:1])[*:2]].I.T.Y.[Pen].N.R.[Dab].T.[NCC[C@@H](N[*:1])C(=O)[*:2]].K.C.[Dab].R.Y}$PEPTIDE1,PEPTIDE1,6:R3-13:R3$$$V2.0): the “Hemolysis at 0.2 g/L” value in series [1] is on record as below 1%. For the same molecule, the “Escherichia coli ATCC 25922 MIC” value in series [2] was determined as 0.25 µg/mL. Further, the “Escherichia coli MCR-1 Af 45 MIC” value in series [3] was determined as 0.125 µg/mL. In addition, the “Klebsiella pneumoniae SSI3010 MIC” value in series [4] turned out to be 0.5 µg/mL.

These data come from patent US20240228555A9, “ANTIMICROBIAL PEPTIDOMIMETICS” (Basilea Pharmaceutica International AG, Allschwil, priority 2020, published 2024).
